Experimental data as given in patent US9623021B2, “Nuclear receptor binding agents” (GTX, Inc., priority 2007, dated 2017).

How the values were obtained:
[1] = target: ERα ligand binding domain (Homo sapiens (Human), UniProt P03372); assay: Competitive [3H]-estradiol radioligand binding, ERα (Example 21)
Experimental: (§1) ER binding affinity was determined via one of the following methods:
(§2) Briefly, the incubation mixture was filtered through a high affinity protein binding filter, and washed several times to remove any unbound radioactivity. The filter plate was air dried and sealed on the bottom.
(§3) Following incubation, plates were harvested onto GF/B filters and radioactivity was measured with a TopCount NXT (PerkinElmer). Nonspecific binding was subtracted from total binding to yield specific binding.

[2] = target: ERβ ligand binding domain (Homo sapiens (Human), UniProt Q92731); assay: Competitive [3H]-estradiol radioligand binding, ERβ (Example 21); settings: ratio between the binding constants of ER-α and ER-β
Experimental: as §1, §2, §3

[3] = target: ER-α (Rattus norvegicus (Rat), UniProt P06211); type: cell-based; settings: 100 nM NRBA compared to 1 nM estradiol
Experimental: COS or 293 cells were plated in DME without phenol red+10% cs FBS at 90,000 cells per well in 24 well plates, and were transfected with 0.25 μg of the vector “ERE-LUC”, where a firefly luciferase gene was driven by two estrogen responsive elements and 0.02 μg of the control CMV-LUC, Renilla where a luciferase gene was driven by a CMV promoter. […] All the receptors were cloned from rat tissue into the PCR3.1 vector backbone. Twenty four hours post transfection, cells were treated with compounds of this invention, estrogen, DHT, and other NRBAs or combinations thereof. Cells were harvested 48 hrs after transfection, and assayed for firefly and Renilla luciferase activity.

[4] = tested on: paw edema; assay: Carrageenan-induced paw edema (acute inflammation model); type: in vivo; settings: per-oral, 1 hr prior to Carrageenan challenge; measured 4 hours post-Carrageenan injection
Experimental: FIG. 14 depicts the effect of 12b on the edema volume which was induced by Carrageenan (i.e. Carrageenan-induce raw paw edema as an acute inflammation model).
To determine the anti-inflammatory effects of ER-β NRBAs in vivo, animal paws were injected with carrageenan, which elicits an acute local inflammatory response. Per-oral treatment of 12b.

[5] = tested on: LNCaP prostate cancer cells; assay: LNCaP prostate cancer cell proliferation (3H thymidine incorporation); type: cell-based; settings: treated for 6 days, FIG. 21
Experimental: (§4) The effects of treatment of an ER-β selective NRBA of this invention on cancer cell proliferation was examined using LNCaP prostate cancer cells and C-26 colon cancer cells. LNCaP or C-26 cells were plated in growth medium in 24 well and 6 well plates, respectively. LNCaP cells were treated for 6 days and C-26 cells were treated for 3 days at the indicated concentration. ^3H thymidine incorporation was measured at the end of treatment as an indicator of cell proliferation.

[6] = tested on: C-26 colon cancer cells; assay: C-26 colon cancer cell proliferation (3H thymidine incorporation); type: cell-based; settings: treated for 3 days, FIG. 22
Experimental: as §4

[7] = tested on: LNCaP cells and human prostate stromal cells xenograft; assay: LNCaP-stromal cell xenograft tumor growth; type: in vivo, nude mice; settings: 30 mg/kg/day for 21 days, by day 21
Experimental: Prostate tumor xenografts were established with LNCaP cells and human prostate stromal cells in nude mice to establish the in vivo anti-proliferative effects of these ER-β NRBAs. A 4:1 ratio (based on cell number) of LNCaP:stroma cells was injected subcutaneously in nude mice and allowed to grow until they attained 100 mm^3 in volume, as measured by calipers. […] Tumor volumes were measured twice a week and percent tumor volume calculated, after 10, 14 and 21 days.

[8] = tested on: uterus; assay: Uterotropic assay; settings: 10 mg/kg/day orally, 3 days
Experimental: Statistical differences among groups were evaluated by one-way ANOVA. Rats were treated for 3 consecutive days and then sacrificed 24 h after the last dose. The body of the uterus was cut just above its junction with the cervix and at the junction of the uterine horns with the ovaries. The uterus was weighed with and without intrauterine fluid. Statistical comparisons were made between the weights of empty uteri.

[9] = tested on: Rat Aortic Smooth Muscle Cells (RASMC); assay: RASMC cell proliferation assay (WST-1); settings: 10 μM and 30 μM

Chain of ERα ligand binding domain (P03372 whole entry, looked up, species assumed, the tested form may be a part): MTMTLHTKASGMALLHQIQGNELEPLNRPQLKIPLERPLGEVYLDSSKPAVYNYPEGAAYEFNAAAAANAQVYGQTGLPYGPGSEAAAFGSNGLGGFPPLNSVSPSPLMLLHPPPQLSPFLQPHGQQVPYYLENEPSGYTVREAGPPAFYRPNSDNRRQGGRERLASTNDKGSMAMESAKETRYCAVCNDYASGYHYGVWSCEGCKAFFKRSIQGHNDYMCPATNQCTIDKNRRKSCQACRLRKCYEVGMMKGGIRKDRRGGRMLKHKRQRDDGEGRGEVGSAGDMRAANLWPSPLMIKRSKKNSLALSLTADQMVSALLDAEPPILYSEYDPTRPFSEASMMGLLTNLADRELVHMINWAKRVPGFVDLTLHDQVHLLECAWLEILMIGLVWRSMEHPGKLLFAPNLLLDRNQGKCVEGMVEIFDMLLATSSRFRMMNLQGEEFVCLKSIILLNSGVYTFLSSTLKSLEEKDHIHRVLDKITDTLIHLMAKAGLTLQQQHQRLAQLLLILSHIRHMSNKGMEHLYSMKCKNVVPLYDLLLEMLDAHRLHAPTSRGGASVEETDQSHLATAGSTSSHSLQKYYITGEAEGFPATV
Chain of ERβ ligand binding domain (Q92731 264-498, species assumed): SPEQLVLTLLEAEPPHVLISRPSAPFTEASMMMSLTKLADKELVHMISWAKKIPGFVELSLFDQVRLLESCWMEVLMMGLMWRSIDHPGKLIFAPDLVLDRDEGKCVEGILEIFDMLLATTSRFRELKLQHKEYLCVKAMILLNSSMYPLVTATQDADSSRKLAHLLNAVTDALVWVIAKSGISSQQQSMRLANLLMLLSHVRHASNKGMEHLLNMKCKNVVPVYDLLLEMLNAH

| Compound | Ki [1] | Ki Ratio (ER-α/ER-β) [2] | Estradiol activity at 100 nM, ER-α [3] | reduction in paw edema [4] | growth of LNCaP prostate cancer cells [5] | growth of C-26 colon cancer cells [6] | tumor growth (percent tumor volume) [7] | uterine growth / uterine weight [8] | cell numbers compared to day 0 [9] |
| --- | --- | --- | --- | --- | --- | --- | --- | --- | --- |
| O=c1c2ccc(O)cc2c(Br)cn1-c1ccc(O)cc1 [Compound 12b, 4-bromo-6-hydroxy-2-(4-hydroxyphenyl)-isoquinolin-1(2H)-one] | 0.998 µM | 20 | 31.2% | 53% | significantly inhibited the growth | significantly inhibited the growth | inhibited the growth of tumor significantly | – | – |
| CC/C(=C(\c1ccccc1)c1ccc(OCCN(C)C)cc1)c1ccccc1 [Tamoxifen, tamoxifen] | – | – | – | – | – | – | – | stimulated the proliferation of uterus significantly | toxicity |
